Source: US20050019855A1, “Methods to increase the productivity of meterologous gene expression” (priority 2001, published 2005)

Experiments:
Assay type in all cases: cell-based, Nicotiana tabacum
[1] = system: tobacco protoplasts; experiment: Transient expression transport assay: secretion index and total activity of α-amylase cargo molecules
Excerpt: (§1) Tobacco leaf protoplasts were electroporated as described (Denecke and Vitale, 1995), and plasmid concentrations used are given in the figure legends. Harvesting of cells and culture medium as well as the enzymatic assays were done as described previously (Denecke and Vitale, 1995; Crofts et al., 1999; Leborgne-Castel et al., 1999). Equal volumes of cells and medium were loaded on protein gel blots or analysed via enzymatic assays to determine the fraction of the marker proteins inside and outside of the cells and to calculate the secretion index (Denecke et al., 1990). Membrane recruitment was assessed by an osmotic shock procedure described previously (Denecke et al., 1990; Denecke et al., 1992).
Protoplasts were extracted in α-amylase extraction buffer (Crofts et al., 1999) via sonication for 5 seconds. In all cases, extracts were cleared by 10 min centrifugation at 2500 g at 4° C. and the supernatant was recovered. α-amylase activity was determined as described (Crofts et al., 1999).
It is established that the molecular target of BFA is the guanosine nucleotide exchange factor for ARF1p, resulting in a stabilisation of an abortive complex with the GDP-bound form of ARF1p at the Golgi membrane. To test if inhibition of retrograde and anterograde transport can be dissected, we decided to utilise the secreted cargo molecule α-amylase (amy) and its derivative carrying an ER retention signal (amy-HDEL), which permits a quantitative analysis of transport rates in tobacco leaf protoplasts (FIGS. 1-6). We have shown before that the secretion index (SI), the ratio between extra- and intracellular activities, provides a simple way to compare relative transport rates at a defined time-point. In addition, amy and amy-HDEL have identical specific enzyme activity and stability throughout the secretory pathway. While both molecules are expected to have identical ER export properties (FIG. 16, route 1), only amy-HDEL can undergo retrograde transport from the Golgi (FIG. 16, route 2). If saturation of the HDEL receptor occurs, amy-HDEL is expected to reach the cell surface in the same manner as amy (FIG. 16, routes 3 and 7). We now tested the influence of different concentrations of BFA on the transport of either cargo molecules via transient gene expression in tobacco protoplasts. […] This effect is less obvious for amy-HDEL.

[2] = system: tobacco protoplasts; experiment: Transient expression transport assay for phytepsin, read by protein gel blot of medium and cells; settings: increasing BFA concentration (FIG. 22)
Excerpt: Transient expression experiment showing the influence of BFA (indicated above each lane in μg/ml final concentration) on secretion to the medium (M), intracellular retention (C) and the partitioning between processed (closed arrows) and un-processed (open arrows) forms of phyteposin. Note that BFA inhibits both secretion and intracellular processing of phytepsin.
as §1
Samples were loaded after twofold dilution with 2×SDS-PAGE loading buffer (200 mM Tris-Cl, pH 8.8, 5 mM EDTA, 1 M sucrose, and 0.1% bromophenol blue). Proteins in SDS-polyacrylamide gels were transferred onto a nitrocellulose membrane and then blocked with PBS, 0.5% Tween 20, and 5% milk powder for 1 hr. […]

[3] = system: stably transformed tobacco cells; experiment: Transport time course in protoplasts from stably transformed tobacco cells incubated with BFA; settings: stable transformants, 30 μg/ml BFA, 240 minute period (FIG. 18)
Description: The experiment shown in FIG. 17 was conducted using a standard transient expression assay with a 24-hour incubation period. This is a long time-period and it is possible that prolonged inhibition of the recycling of essential COPII vesicle budding components leads eventually to an inhibition of anterograde transport. […] To test this, we have carried out a transport experiment in which stably transformed tobacco cells were incubated for different time-periods in the presence of BFA. Under these circumstances, protoplasts contain a steady state level of amy or amy-HDEL from the very beginning of the experiment. This steady state level is very high for amy-HDEL, thus secretion of the cargo into the medium should be detected with high sensitivity if BFA first inhibits […] retrograde transport while COPII anterograde transport is still efficient. […] It was not possible to detect a transient induction of amy-HDEL secretion prior to the inhibition of amy secretion.

[4] = 24-hour incubation, increasing BFA concentration (FIG. 17)

Compound: C[C@H]1CCC/C=C/[C@@H]2C[C@H](O)C[C@H]2[C@H](O)/C=C/C(=O)O1 [BFA, Brefeldin A]
- total activity (medium+cells) of amy-HDEL ([1]; 24-hour incubation, BFA present (FIG. 17 lower panel)): slightly increased total activity for amy-HDEL
- total amount of α-amylase (amy) produced (medium+cells) ([1]; 24-hour incubation, BFA treatment (FIG. 17)): reduction in the total amount of α-amylase
- secretion of amy-HDEL, secretion index [1, 4]: hardly influenced by the drug
- secretion of α-amylase (amy), secretion index [1, 4]: concentration-dependent inhibition of α-amylase secretion
- secretion of amy-spo to the medium ([1]; increasing BFA concentration (FIG. 25B)): does not induce secretion of the cargo molecule
- intracellular processing of the phytepsin precursor [2]: inhibits processing of the phytepsin precursor
- secretion of phytepsin precursor to the medium [2]: secretion was inhibited at the lowest concentration of BFA used
- secretion of amy, secretion index over time [3]: only inhibits the secretion of amy
- secretion of amy-HDEL, secretion index over time [3]: slightly induced after prolonged incubation (80 minutes and more)
